Assay results reported in patent US9464092B2, “Transient protection of normal cells during chemotherapy” (G1 Therapeutics, Inc., priority 2013, dated 2016).
Where two headings read alike, the source gives them in different places.

What was measured:
[1] = system: Rb phosphorylation at Ser780 and Ser807/811; test: Rb phosphorylation western blot; assay type: cell-based; conditions: 300 nM
Protocol: The Cdk4/6-cyclin D complex is essential for progression from G1 to the S-phase of the DNA cell cycle. This complex phosphorylates the retinoblastoma tumor suppressor protein (Rb). […] Samples were lysed and protein was assayed by western blot analysis. Rb phosphorylation was measured at two sites targeted by the Cdk4/6-cyclin D complex, Ser780 and Ser807/811 using species specific antibodies.

[2] = system: human renal proximal tubule cells; test: Cell cycle analysis of renal proximal tubule cells with etoposide or cisplatin; assay type: cell-based; conditions: 10-1000 nM with etoposide or cisplatin
Protocol: (§1) The ability of Cdk4/6 inhibitors to protect human renal proximal tubule cells from chemotherapy induced DNA damage was analyzed using etoposide and cisplatin. […] At the conclusion of the experiment, cells were harvested, fixed, and stained with propidium iodide (a DNA intercalator), which fluoresces strongly red (emission maximum 637 nm) when excited by 488 nm light. Samples were run on Dako Cyan flow cytometer.

[3] = system: human renal proximal tubule cells; test: DNA cell cycle analysis in human renal proximal tubule cells; assay type: cell-based; conditions: 24 hours, dose dependent
Text: as §1, with “To test the” for “The”, “induce a clean G1-arrest in non-hematopoietic cells, G1 arrest was examined in” for “protect”, “cells.” for “cells from chemotherapy induced DNA damage was analyzed using etoposide and cisplatin.”

[4] = Mouse pharmacokinetics (oral gavage / intravenous); assay type: in vivo, mice; conditions: mouse
[5] = system: tHS68 cells (CDK4/6-dependent cell line); test: Cell cycle arrest by propidium iodide flow cytometry, tHS68; assay type: cell-based, human; conditions: 300 nM, 24 hours
Text: To test the ability of Cdk4/6 inhibitors to induce a clean G1-arrest, a cell based screening method was used consisting of two Cdk4/6-dependent cell lines (tHS68 and WM2664; Rb-positive) and one Cdk4/6-independent (A2058; Rb-negative) cell line. […] At the conclusion of the experiment, cells were harvested, fixed, and stained with propidium iodide (a DNA intercalator), which fluoresces strongly red (emission maximum 637 nm) when excited by 488 nm light. Samples were run on Dako Cyan flow cytometer and >10,000 events were collected for each sample. Data were analyzed using FlowJo 2.2 software developed by TreeStar, Inc.

[6] = system: RB-intact, Cdk4/6-dependent cell line (WM2664 or tHS68); test: EdU proliferation, RB-intact Cdk4/6-dependent cell line; conditions: 24 hours
[7] = system: telomerized human diploid fibroblasts (tHDFs); test: γ-H2AX DNA damage assay in tHDF cells with chemotherapy; assay type: cell-based; conditions: pretreatment before carboplatin, doxorubicin, etoposide, camptothecin or paclitaxel
Protocol: (§2) Cell survival was determined by Cell TiterGlo assay per manufacturer's recommendations. For both γ-H2AX and caspase 3/7 assays, cells were plated and allowed to become adherent for 24 hours. […] For γ-H2AX, cells were harvested for analysis 8 hours after chemotherapy exposure. For the γ-H2AX assay, cells were fixed, permeabilized, and stained with anti-γ-H2AX as per the γ-H2AX Flow Kit (Millipore) and quantitated by flow cytometry. Data was analyzed using FlowJo 2.2 software developed by TreeStar, Inc. For the in vitro caspase 3/7 assay, cells were harvested 24 hours post chemotherapy treatment. Caspase 3/7 activation was measured using the Caspase-Glo® 3/7 Assay System (Promega) per manufacturer's recommendations.

[8] = system: telomerized human diploid fibroblasts (tHDFs); test: Caspase 3/7 activation in tHDF cells with chemotherapy; assay type: cell-based; conditions: pretreatment before carboplatin, doxorubicin, etoposide, camptothecin, and paclitaxel
Protocol: as §2

[9] = system: renal proximal tubule epithelial cells; test: Caspase 3/7 activation in renal proximal tubule epithelial cells with cisplatin; assay type: cell-based, human; conditions: 30 nM-1 uM with cisplatin 25 uM, 50 uM, or 100 uM
Protocol: Normal renal proximal tubule epithelial cells were obtained from American Type Culture Collection (ATCC, Manassas, Va.). Cells were grown in an incubator at 37° C. in a humidified atmosphere of 5% CO2 in Renal Epithelial Cell Basal Media (ATCC) supplemented with Renal Epithelial Cell Growth Kit (ATCC) in 37° C. humidified incubator. […] Caspase 3/7 activation was measured 24 hours later using the Caspase-Glo 3/7 Assay System (Promega, Madison, Wis.) by following the manufacturer's instructions.
Normal renal proximal tubule epithelial cells were obtained from American Type Culture Collection (ATCC, Manassas, Va.). Cells were grown in an incubator at 37° C. in a humidified atmosphere of 5% CO2 in Renal Epithelial Cell Basal Media (ATCC) supplemented with Renal Epithelial Cell Growth Kit (ATCC) in 37° C. humidified incubator. […] For the γ-H2AX assay, cells were fixed, permeabilized, and stained with anti-γ-H2AX as per the γ-H2AX Flow Kit (Millipore) and quantitated by flow cytometry. Data was analyzed using FlowJo 2.2 software developed by TreeStar, Inc. Caspase 3/7 activation was measured using the Caspase-Glo 3/7 Assay System (Promega, Madison, Wis.) by following the manufacturer's instructions.

HSPCs (bone marrow) = test: HSPC proliferation in bone marrow by EdU incorporation after oral gavage; assay type: in vivo, mice
Protocol: Mice were then sacrificed at the indicated times (0, 12, 24, 36, or 48 hours following compound administration), and bone marrow was harvested (n=3 mice per time point), as previously described (Johnson et al. J. Clin. Invest. (2010) 120(7), 2528-2536). Four hours before the bone marrow was harvested, mice were treated with 100 μg of EdU by intraperitoneal injection (Invitrogen). Bone marrow mononuclear cells were harvested and immunophenotyped using previously described methods and percent EdU positive cells were then determined (Johnson et al. J. Clin. Invest. (2010) 120(7), 2528-2536). In brief, HSPCs were identified by expression of lineage markers (Lin-), Sca1 (S+), and c-Kit (K+).
Four hours before animals were sacrificed and the bone marrow was harvested, mice were treated with 100 μg of EdU by intraperitoneal injection. Three mice per group were sacrificed at 12 hours and the remaining three animals per group were sacrificed at 24 hours. Results are shown in FIG. 6A as the ratio of EdU positive cells for treated animals at 12 or 24 hour time points compared to control.
Further experiments were completed with Compound T examining dose response and longer periods of compound treatment. […] […].
Both compounds were administered at 150 mg/kg by oral gavage. One hour prior to harvesting bone marrow, EdU was IP injected to label cycling cells. Bone marrow was harvested at 12, 24, 36, and 48 hours after compound treatment and the percentage of EdU positive HSPC cells was determined at each time point.

In the case of `CN1CCN(c2ccc(Nc3ncc4cc5n(c4n3)C3(CCCCC3)CNC5=O)nc2)CC1` [Compound T], the “time post exposure by which Rb phosphorylation is blocked” value ([1]; Rb-dependent cell lines (tHS68, WM2664)) was no more than 16 h, the “effect on Rb phosphorylation” value ([1]; Rb-independent cells (A2058)) was “no effect” and the “protection from chemotherapy induced DNA damage (cell cycle distribution)” value [2] was “protects renal proximal tubule epithelial cells from chemotherapy induced DNA damage”. The “G1 cell cycle arrest” value [3] was “robust G1 cell cycle arrest”, the F [4] was 80% and the half-life ([4]; plasma, po, 30 mg/kg, 30 mg/kg oral gavage, read-out: t1/2 p.o. (converted)) was 5 h. It also gave a half-life ([4]; plasma, po, 30 mg/kg, read-out: plasma half-life following oral administration) of 3 to 5 h, a bioavailability ([4]; plasma, po, 30 mg/kg, read-out: oral bioavailability (F (%))) of 52 to 80% and an AUC(0-inf) ([4]; plasma, iv, 10 mg/kg i.v.) of 1300 nM·h. It also gave a clearance ([4]; plasma, iv, 10 mg/kg i.v.) of 2.1 L/h/kg, a Vd ([4]; plasma, iv, 10 mg/kg i.v., read-out: Vss) of 2.7 L/kg and an AUC ([4]; plasma, 30 mg/kg oral gavage) of 2900 nM·h. The Cmax ([4]; plasma, 30 mg/kg oral gavage) was 2.5 µM, the Tmax ([4]; plasma, 30 mg/kg oral gavage) was 1 h and the “effect on S-phase peak” value [5] was “causes a loss of the S-phase peak”. For the same compound, the “effect on proliferation (EdU, percent of cells in S-phase)” value [6] was “inhibits the Rb-positive cell line (tHS68)”, the “DNA damage as measured by γ-H2AX formation” value [7] was “attenuated DNA damage” and the “caspase 3/7 activation” value [8] was “robust decrease in caspase 3/7 activation in a dose-dependent manner”. The “caspase 3/7 activation” value [9] was “dose-dependent reduction in caspase 3/7 activation”, the “EdU incorporation into HSPCs at 12 and 24 hours compared to control” value (HSPCs (bone marrow); 150 mg/kg oral gavage) was “reduction in EdU incorporation at 12 hours which was starting to return to normal at 24 hours” and the “G1-arrest of bone marrow stem cells (HSPC)” value (HSPCs (bone marrow); oral gavage, mice) was “dose dependent, transient, and reversible G1-arrest”.
